Earlier results as cited in patent US20190125685A1, “COMPOSITE CAPSULE PREPARATION CONTAINING TADALAFIL AND TAMSULOSIN AND HAVING IMPROVED STABILITY AND ELUTION RATE” (HANMI PHARM. CO., LTD., priority 2016, published 2019).

Details: in vivo

**Q.** Which “Half-life relative to that of sildenafil or vardenafil” value does the source give for `CN1CC(=O)N2[C@H](c3ccc4c(c3)OCO4)c3[nH]c4ccccc4c3C[C@@H]2C1=O` [Tadalafil] here?
**A.** Its value is no less than 3 times.
